Data from patent publication US20170165253A1, “TREATMENT OF SEXUAL DYSFUNCTION AND FOR IMPROVED SEXUAL QUALITY OF LIFE” (ReJoy, priority 2015, published 2017).
Several values for one entry are separate records, joined by “and”; a condition that tells them apart may be missing. Equal entries are not always repeated. Structures can show the parent of a compound that is named as a salt.

Assays:
[1] = tested on: nipple areola complex; test: Iontophoresis patch erection of the nipple areola complex (Example 10); type: in vivo, human; conditions: 1.3 mL 1% solution, iontophoresis patch 1 hour
Experimental: In the following experiment, a commercially available iontophoresis patch was used to erect the nipple of a subject.
1. The nipple and areola of each breast were prepared by cleaning with a sterile alcohol pad.
2. Two Inotopatch 80 (Travanti Medical) patches were removed from packaging.
3. The positive electrode of the first patch was filled with 1.3 mL of a 1% phenylephrine hydrochloride.
4. The negative electrode of the first patch was filled with 1.3 mL of a saline solution.
5. The positive electrode (approximately 1.5 cm diameter) containing the drug was placed over the nipple areola complex of the right breast; the negative electrode was placed on the adjacent breast tissue outside the nipple areola complex of the right breast.
6. Steps 2-5 were repeated, however, both electrodes of the Inotopatch 80 were filled with 1.3 mL of saline. The patch was applied to left breast following the procedure of step 5.
7. The patches were left in place (adhesive) for 1 hour (dosage=[…], 80 mA/min).
8. After 1 hour the patches were removed.

[2] = IVRT Franz cell skin penetration, excised pig skin; type: in vitro ADME; conditions: for Penetration (%), Sample 1-3 / Penetration (%), Average: pig skin; for Penetration (%), Sample 1-3: single replicates, Hydrochloride
Source text: Transdermal penetration of a particular formulation can be assessed with in vitro release testing (IVRT) using a Franz cell. See Bartosova and Bajagar, “Transdermal Drug Delivery In Vitro Using Diffusion Cells,” Current Medicinal Chemistry, 2012, 19, 4671-4677.
In order to determine the dermal absorption and bioavailability of topically applied 10% Phenylephrine Hydrochloride solution, we used an IVRT experimental setup with both skin excised from pig ears and a synthetic skin model (Maine Manufacturing, LLC, Me., USA).
In the example, the following data was obtained from a Franz cell diffusion experiment using excised pigskin barrier. A 50 microliter aliquot of a phenylephrine solution was allowed to penetrate through 9 mm diameter sample of pigskin into a 5 mL reservoir of phosphate buffered saline. Phenylephrine concentration was determined in the reservoir by measuring the optical absorbance at 214 nm at time points subsequent to the application of the formulation. In the following example the test solution was 10% (w/w) phenylephrine, 10% (w/w) Dimethyl Isosorbide, and 80% (w/w) ethanol. From the data below, it can be concluded that the formulation can be deemed “successful” because 82% of the applied drug penetrated the pigskin membrane in 3 hours. The experiment was run in triplicate. The average of all three data is shown. It is envisioned that additional studies may be undertaken with other models of in vitro release testing or with variations of the same model to compare with the data reported below.

[3] = tested on: skin on the subjects forearm; test: pH pilot study, pilomotor effect on forearm skin (Example 6); type: in vivo, human; conditions: 10% solution
Experimental: A pilot study was conducted to assess the optimal pH of topical phenylephrine solution required to elicit smooth muscle contraction on the skin. A series of 10% phenylephrine solutions were prepared in phosphate buffer solutions of varied pH. pH 4.6, 4.8, 5.0, 5.2, 5.4, 5.6, 5.8, 6.0, 6.2, 6.4, and 6.6 were used. Areas of skin on the subjects forearm were marked with a surgical pen. 50 microliter of each solution were applied to the marked area of skin and allowed to dry. After one hour the sites of application were visually inspected for the appearance of the pilomotor effect (i.e., “goose bumps”).

[4] = Blood pressure and heart rate after topical application on the nipple-areola complex (Example 2); type: in vivo, human
Experimental: A study of the blood pressure and heart rate of five patients receiving topical application on the nipple-areola complex was made. The composition applied was 0.1 mL of a 10% phenylephrine solution for a total dosage of 10 mg phenylephrine HCl. Blood pressure and heart rate were measured at baseline (T=0), after 15 minutes and 30 minutes.

[5] = tested on: nipple-areola complex; test: Phenylephrine FSFI orgasm domain study (Example 8); type: in vivo, human
Experimental: Phenylephrine HCl 15%. A study was conducted to evaluate the effect of Phenylephrine HCl 15% on the FSFI orgasm domain. Three premenopausal subjects participated in the study. Subjects were not hypertensive, pregnant or breastfeeding.

[6] = tested on: nipple areole complex; test: Pilot dose study of nipple erection and sensitivity, topical phenylephrine (Example 3); type: in vivo, human; conditions: 10% topical solution
Experimental: A pilot study was conducted to assess the dosage of topical phenylephrine solution required to elicit nipple erection and sensitivity. […] Two subjects were post-menopausal and the reminder three were pre-menopausal. Subjects were not hypertensive, pregnant or breastfeeding. Three formulations were used: Formula A: 0% topical phenylephrine hydrochloride solution; Formula B: 5% topical phenylephrine hydrochloride solution; Formula C: 10% topical phenylephrine hydrochloride solution.
The study was conducted over 3 days. On day 1, subjects were instructed to apply on the left nipple Formula A and on the right nipple Formula B. On day 2, subjects were instructed to apply on the left nipple Formula A and on the right nipple Formula C. On day 3, subjects were instructed to apply on the left nipple Formula B and on the right nipple Formula C. 0.1 mL of each formula was applied with a cotton swab to the nipple areole complex. […] With the 10% topical phenylephrine solution, response in nipple erection and sensitivity was obtained in less than 30 minutes and lasted for 3-4 hours.

[7] = IVRT Franz cell skin penetration, excised pig skin; type: in vitro ADME
[8] = 0.1 mL 10% solution on NAC, 15 minutes, single subjects, listed as PHCI, Hydrochloride
[9] = 0.1 mL 10% solution on NAC, 30 minutes, single subjects, listed as PHCI, Hydrochloride
[10] = Phenylephrine HCl 15%, single subjects, Hydrochloride

average absorption per nipple-areola complex ([2]; 0.1 mL of 10% solution not removed for 24 hours): 8.3 mg
applied drug penetrated the pigskin membrane ([2]; 10% (w/w) in 10% Dimethyl Isosorbide, 80% ethanol, 3 hours): 82%
Penetration (%), Sample 1-3 ([2]; 10% solution, 50 microliter, 1 h): 32.3% and 2.1% and 0.7%
Penetration (%), Average ([2]; 10% solution, 1 h): 11.7%
Penetration (%), Average ([2]; 10% solution, 2 h): 61.1%
Penetration (%), Sample 1-3 ([2]; 10% solution, 2 h): 80.6% and 89.0% and 13.6%
Penetration (%), Average ([2]; 10% solution, 3 h): 82.8%
Penetration (%), Sample 1-3 ([2]; 10% solution, 3 h): 78.9% and 87.5% and 81.9%
Penetration (%), Average ([2]; 10% solution, 4 h): 81.0%
Penetration (%), Sample 1-3 ([2]; 10% solution, 4 h): 78.6% and 83.4% and 81.1%
Penetration (%), Average ([2]; 10% solution, 5 h): 81.9%
Penetration (%), Sample 1-3 ([2]; 10% solution, 5 h): 78.5% and 86.0% and 81.3%
Penetration (%), Average ([2]; 10% solution, 24 h): 81.6%
Penetration (%), Sample 1-3 ([2]; 10% solution, 24 h): 81.3% and 83.1% and 80.3%
maximal skin absorption in 24 hours ([2]; 10% solution, skin excised from pig ears): ≤ 83%
total absorption over 24 hours ([7]; 0.1 mL of 10% solution per NAC, both NAC): 16.6 mg
less systemic exposure compared to the oral OTC drug ([7]; topical dosage vs one 10 mg oral tablet every 4 hours): approximately 45%
Structure (SMILES): CNC[C@H](O)c1cccc(O)c1 [Phenylephrine HCl, Phenylephrine Hydrochloride]
nipple sensitivity ([1]; one subject): increased sensitivity in the right nipple compared to the left nipple
nipple erection ([1]; right nipple vs saline left): visibly erect
Results after 1 hour (pilomotor effect) ([3]; pH 4.6, 50 microliter on forearm): None
Results after 1 hour (pilomotor effect) ([3]; pH 4.8): Slight
Results after 1 hour (pilomotor effect) ([3]; pH 5.0): Strong
Results after 1 hour (pilomotor effect) ([3]; pH 5.2): Strong
Results after 1 hour (pilomotor effect) ([3]; pH 5.4): Strong
Results after 1 hour (pilomotor effect) ([3]; pH 5.6): Slight
Results after 1 hour (pilomotor effect) ([3]; pH 5.8): Slight
Results after 1 hour (pilomotor effect) ([3]; pH 6.0): None
Results after 1 hour (pilomotor effect) ([3]; pH 6.2): None
Results after 1 hour (pilomotor effect) ([3]; pH 6.4): None
Results after 1 hour (pilomotor effect) ([3]; pH 6.6): None
BP (T = 15) [4, 8]: 112/76 and 122/77 and 117/72 and 120/72 and 99/67
HR (T = 15) [4, 8]: 69 and 77 and 75 and 53 and 68
BP (T = 30) [4, 9]: 117/75 and 122/78 and 128/77 and 116/68 and 97/63
HR (T = 30) [4, 9]: 74 and 80 and 68 and 58 and 69
change in blood pressure or heart rate ([4]; 0.1 mL 10% solution, five patients, 15 and 30 minutes): No significant change in blood pressure or heart rate
adverse events ([5]; 15%): No adverse events were reported
subjects with increased sensitivity and nipple erection ([5]; 15%, subjects without response to 10%): 3 of 5
FSFI Scale How Difficult to Reach Orgasm, Intervention [5, 10]: 5 (2×) and 4
FSFI Scale How Often Orgasm was Reached, Intervention [5, 10]: 5 and 4 (2×)
nipple sensitivity past application ([5]; report): ≤ 12 h
duration of response in nipple erection and sensitivity [6]: 3 to 4 h
time to response in nipple erection and sensitivity [6]: less than 30 minutes
